Experimental data from US20040019118A1, “NMDA receptor antagonists and their use in inhibiting abnormal hyperphosphorylation of microtubule associated protein tau” (priority 2002, published 2004).
“Also recorded” adds a separate entry of the source. Where two headings read alike, the source gives them in different places.

Assays:
[1] = target: T1, PP-2A (Rattus norvegicus, UniProt P63331); assay: PP-2A activity in extracts of treated hippocampal slice cultures; type: cell-based
T1 construct: from tissue; host or cells: organotypic culture of adult rat hippocampal slices; 16,000xg extract
T1 sequence (P63331 whole entry): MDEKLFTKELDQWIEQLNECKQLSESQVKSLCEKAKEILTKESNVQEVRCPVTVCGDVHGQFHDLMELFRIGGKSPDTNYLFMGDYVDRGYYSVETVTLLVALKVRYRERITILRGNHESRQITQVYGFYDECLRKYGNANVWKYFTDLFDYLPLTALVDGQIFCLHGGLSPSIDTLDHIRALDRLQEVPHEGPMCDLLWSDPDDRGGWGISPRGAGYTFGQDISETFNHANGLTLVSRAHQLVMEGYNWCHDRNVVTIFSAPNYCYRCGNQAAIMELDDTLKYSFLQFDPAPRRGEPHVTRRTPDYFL
Protocol: (§1) Organotypic cultures of rat hippocampal slices were prepared from 20-30 day old Wistar rats and cultured with the interface method as described previously (Stoppini, et al. 1991; Bahr, et al. 1995; Zhongrin, et al. 2000). The rats were anesthetized with ketamine (100 mg/kg body weight) and decapitated and the hippocampi were dissected out and sliced into 400 um coronal sections by a McIllwain tissue chopper. Select slices with uninterrupted bright transparent neuronal layers were plated, 1-3 slices/filter, onto Millicell CM filters (Millipore, Bedford, Mass.). For the first 2 days in vitro (DIV) cultures were maintained in 25% horse serum, 50% Basal Media-Eagle (BEM), 25% Eagle's Balanced Salt Solution (EBSS), 25 mM HEPES, 1 mM glutamine, 28 mM glucose, pH 7.2, at 32° C. in a 5% CO2 humidified atmosphere. The slice cultures were then switched to 25% horse serum, 50% BEM and EBSS modified so that the potassium concentration was 2.66 mM, for another 5 DIV. After 7 DIV, the cultures were maintained in physiological potassium containing 5% horse serum medium at 35° C. for at least 20 days before any treatment was applied. When the slices were treated, the reagents were applied into the culture medium. At different time points, the slices collected with a brush were washed twice in homogenizing buffer (50 mM HEPES, pH 7.0, 10 mM β-merceptoethanol [BME], 1 mM EDTA, 1 mM EGTA, 0.1 mM phenylmethyl sulfonyl fluoride [PMSF], 2.0 mM benzamidine and 2.0 μg/ml each of aprotinin, leupeptin and pepstatin) and homogenized at 4° C. using a Teflon-glass homogenizer. The homogenate was then divided into two parts, one was centrifuged at 16000×g for 15 min and the supernatant was used to assay activities of PP-2A and PP-1. The rest of the homogenate was diluted 1:1 with a phosphatase inhibitor cocktail (20 mM β-glycerophosphate, 2 mM Na3VO4 and 100 mM NaF, pH 7.0) and either used for Western blots or centrifuged at 16000×g for 15 min and the resulting supernatant used to determine the kinase activities.
Activities of PP-2A and PP-1 were assayed towards [^32P] phosphorylase-a as a substrate as described previously (Gong, et al. 1994). The phosphatase activity was assayed in 20 μl of reaction mixture containing 50 mM Tris, pH 7.0, 10 mM BME, 0.1 mM EDTA, 7.5 mM caffeine, 7.5 ng/μl [^32P]phosphorylase-a and 0.06 mg/ml slice culture extract. The reaction was started by adding ^32P-phosphorylase-a. After incubation for 30 min at 30° C., 7 μl of the reaction mixture was spotted on to 31 ETCHR chromatography paper which had been prespotted with 10 μl stop solution (4 mM ATP+20% TCA). Then the ^32p released was separated from the protein-incorporated ^32P by paper chromatography in 5% TCA and 0.2 M NaCl, paper strips dried, cut and counted by Cerenkov radiation. A PP-1 specific inhibitor, inhibitor-1 (Hitken, et al. 1982) was included in the assays for PP-2A activity. PP-1 activity was calculated by subtracting the PP-2A activity from the total phosphorylase-a phosphatase activity (PP-1/PP-2A) assayed in the absence of inhibitor-1.

[2] = tested on: GSK-3; assay: GSK-3 activity in extracts of treated hippocampal slice cultures; type: cell-based, rat
Protocol: (§2) Organotypic cultures of rat hippocampal slices were prepared from 20-30 day old Wistar rats and cultured with the interface method as described previously (Stoppini, et al. 1991; Bahr, et al. 1995; Zhongrin, et al. 2000). The rats were anesthetized with ketamine (100 mg/kg body weight) and decapitated and the hippocampi were dissected out and sliced into 400 um coronal sections by a McIllwain tissue chopper. Select slices with uninterrupted bright transparent neuronal layers were plated, 1-3 slices/filter, onto Millicell CM filters (Millipore, Bedford, Mass.). For the first 2 days in vitro (DIV) cultures were maintained in 25% horse serum, 50% Basal Media-Eagle (BEM), 25% Eagle's Balanced Salt Solution (EBSS), 25 mM HEPES, 1 mM glutamine, 28 mM glucose, pH 7.2, at 32° C. in a 5% CO2 humidified atmosphere. The slice cultures were then switched to 25% horse serum, 50% BEM and EBSS modified so that the potassium concentration was 2.66 mM, for another 5 DIV. After 7 DIV, the cultures were maintained in physiological potassium containing 5% horse serum medium at 35° C. for at least 20 days before any treatment was applied. When the slices were treated, the reagents were applied into the culture medium. […]

[3] = tested on: cdk5; assay: cdk5 activity in extracts of treated hippocampal slice cultures; type: cell-based, rat
Protocol: as §2

[4] = tested on: hippocampal slices in culture; assay: Cell death by LDH activity released into the culture medium; type: cell-based, rat
Protocol: as §1
The LDH released into the culture medium from the slices was determined calorimetrically using Cytotox 96R Non-Radioactive Cytotoxicity Assay Kit (Promega, Madison, Wis.) according to the manufacturer's protocol. The assay was carried out in 96-well microplates, and the results were read by a kinetic microplate reader (Molecular Devices) at a wavelength of 490 nm. Protein concentrations were assayed by the modified Lowry method (Bensadoun and Weinstein, 1976).

[5] = tested on: tau phosphorylated at Ser-262; assay: Immunohistochemical staining of tau phosphorylated at Ser 262 in cultured hippocampal slices; type: cell-based, rat; conditions: 100 nM OA 24 h
Protocol: as §2, with “DIV.” for “DIV. After 7 DIV, the cultures were maintained in physiological potassium containing 5% horse serum medium at 35° C. for at least 20 days before any treatment was applied. When the slices were treated, the reagents were applied into the culture medium.”
(§3) After different treatments some of the hippocampal slices were fixed in periodate/lysine/paraformaldehyde solution (Mclean, et al. 1974) at 33° C. for 5 h and then kept in 1% Triton-x-100 in PBS (pH 7.4) for 72 h at room temperature to improve the penetration of the antibodies. […] Peroxidase was detected using 0.05% diaminobenzidine (DAB) and H2O2 (0.01%) for 10 min.

[6] = tested on: pNF-H/M; assay: Immunohistochemical staining of neurofilaments (pNF-H/M) in cultured hippocampal slices; type: cell-based, rat; conditions: 100 nM OA 24 h
Protocol: as §2, with “DIV.” for “DIV. After 7 DIV, the cultures were maintained in physiological potassium containing 5% horse serum medium at 35° C. for at least 20 days before any treatment was applied. When the slices were treated, the reagents were applied into the culture medium.”
as §3

[7] = tested on: NF-H/M; assay: 125I-Western blots of phosphorylated NF-H/M in slice homogenates; type: cell-based, rat
Protocol: as §2, with “DIV.” for “DIV. After 7 DIV, the cultures were maintained in physiological potassium containing 5% horse serum medium at 35° C. for at least 20 days before any treatment was applied. When the slices were treated, the reagents were applied into the culture medium.”
The phosphorylation of tau at Ser 262 and the levels of MAP2 and phosphorylated NF-H/M were assayed by ^125I-Western blots. […] Both immuno-dot-blots and Western blots were developed with ^125I-radiolabeled secondary antibodies and radioimmunoreactivity was visualized and quantitated using a phosphorimager (Fujifilm BAS-1500) and TINA 2.0 software (Raytest Isotopenmessgeräte GmbH)

[8] = Memantine in OA-treated cultures

CC12CC3CC(C)(C1)CC(N)(C3)C2 [Memantine, 1-amino-3,5-dimethyl adamantane]
restoration of OA-inhibited PP-2A activity ([1]; 100 nM OA and 1, 10 or 30 μM Memantine, 3-48 h (FIG. 2a), p<0.02): restored the OA-inhibited PP-2A activity to normal level
restoration of PP-2A activity ([1]; 100 nM OA plus 10 μM Memantine 24 h, or OA 24 h, wash, then Memantine 24 h): restored the PP-2A activity to normal level; also recorded: almost completely restored; also recorded: restored the activities of both PP-2A and CaMKII
restoration of OA-inhibited PP-2A activity ([1]; 100 nM OA, 10 μM Memantine, 24 h): practically completely restored; also recorded: restored the OA-induced changes in the activities of PP-2A, CaMKII and PKA to normal levels
restoration of OA-inhibited PP-2A activity ([1]; 5 μM compound): restoration
additional effect on restoration of PP-2A activity ([1]; Memantine 10 to 30 μM, or 24 h to 48 h): Neither increase of Memantine from 10 μM to 30 μM nor duration of the treatment from 24 h to 48 h resulted in any significant additional effect
concentration giving full effect on restoration of PP-2A activity ([1]; OA-treated slices): 10 µM
lowest concentration at which restoration of PP-2A activity was observed ([1]; OA-treated slices): 1 µM
effect on PP-2A activity ([1]; after 0.3 mM glutamate 1 h, 10 μM Memantine or 15 μM MK801): no effect
effect on PP-2A activity in control (untreated) slices ([1]; no OA): no significant effect
effect on GSK-3 activity [2, 8]: neither OA nor Memantine had any significant effect; also recorded: no significant effect
effect on cdk5 activity [3, 8]: neither OA nor Memantine had any significant effect; also recorded: no significant effect
concentration (as low as) that completely inhibited OA-induced cell death ([4]; 100 nM OA, p<0.001 (FIG. 2d)): 1 µM
inhibition of OA-induced cell death ([4]; 10 μM Memantine): completely inhibited
effect on LDH activity in the medium of control cultures ([4]; 1-30 μM Memantine, no OA): no effect
lowest concentration with significant/detectable inhibition of OA-induced cell death ([4]; OA-treated slices): 1 µM
pS262 positive cells / p-Ser-262 immunostaining ([5]; then 10 μM Memantine 24 h): decreased dramatically; also recorded: markedly decreased; also recorded: restored in large part
neurofilament (pNF-H/M, SMI 31) immunostaining ([6]; then 10 μM Memantine 24 h): reduced these changes; also recorded: partially reversed
phosphorylated NF-H/M level ([7]; OA plus/then Memantine): reversed the OA-induced increase in phosphorylated NF-H/M; also recorded: reversal of phosphorylation and accumulation of NF-H/M subunits; also recorded: reversed the hyperphosphorylation of NF-H/M

C=C1[C@@H](O)[C@@H]2O[C@]3(CC[C@H](/C=C/[C@@H](C)[C@@H]4CC(C)=C[C@@]5(O[C@H](C[C@@](C)(O)C(=O)O)CC[C@H]5O)O4)O3)CC[C@H]2O[C@@H]1[C@@H](O)C[C@H](C)[C@H]1O[C@@]2(CCCCO2)CC[C@H]1C [OA, Okadaic Acid]
inhibition (decrease) of PP-2A activity ([1]; 100 nM OA, 24 h): ~40%
inhibition (decrease) of PP-2A activity ([1]; 1000 nM (1 μM) OA, 48 h, 1 µM): ~75%
inhibition at 0.1 µM ([1]; read-out: inhibition (decrease) of PP-2A activity, 100 nM OA, 24 h): 42%
inhibition at 1 µM ([1]; read-out: inhibition (decrease) of PP-2A activity, 1000 nM (1 μM) OA, 48 h): 78%
inhibition at 0.01 µM ([1]; read-out: inhibition of PP-2A activity, 10 nM OA, 24 h): ~20%
inhibition at 1 µM ([1]; read-out: inhibition of PP-2A activity, 1 μM OA, 24 h): ~65%
change in GSK-3 activity ([2]; OA-treated slice cultures): no significant change; also recorded: neither OA nor Memantine had any significant effect; also recorded: no significant alteration
change in cdk5 activity ([3]; OA-treated slice cultures): no significant change; also recorded: neither OA nor Memantine had any significant effect; also recorded: no significant alteration
cell death (LDH activity released in the medium) ([4]; OA up to 1 μM, up to 48 h): increased with increase in OA concentration and treatment period; also recorded: markedly increased; also recorded: several-fold increase
pS262 positive cells / p-Ser-262 staining ([5]; then medium 24 h): increased markedly; also recorded: marked increase
neurofilament (pNF-H/M, SMI 31) immunostaining ([6]; then medium 24 h): immunostaining was increased; also recorded: an increase in phosphorylation and accumulation of NF-H/M
phosphorylated NF-H/M level ([7]; OA-treated cultures): increase in phosphorylated NF-H/M
